Measurements: article PMC8964029 (Pharmaceutical Research, 2022)
Read-outs that look alike come from different tables or passages of the source.

Experiments:
[1] = Treatment-related adverse events graded according to CTCAE version 5.0; type: in vivo, human; conditions: nine patients
[2] = cited from earlier work
[3] = type: in vivo, human; conditions: for Cmin (trough concentration) / Cmax / AUC0-24h: steady state, geometric mean (CV%); for AUC0-24h, ratio of geometric mean (95% CI) / Cmax, ratio of geometric mean (95% CI) / Cmin, ratio of geometric mean (95% CI): erlotinib 75 mg QD + ritonavir 200 mg QD versus erlotinib monotherapy 150 mg QD
CYP3A4 = conditions: remaining part by CYP1A2; cited from earlier work
[4] = healthy volunteers, co-administration of ketoconazole; cited from earlier work
[5] = erlotinib 75 mg QD + ritonavir 200 mg QD
[6] = erlotinib monotherapy 150 mg QD
[7] = plasma, erlotinib 75 mg QD + ritonavir 200 mg QD
[8] = plasma, erlotinib monotherapy 150 mg QD
[9] = versus erlotinib monotherapy, result in words

C#Cc1cccc(Nc2ncnc3cc(OCCOC)c(OCCOC)cc23)c1 [Erlotinib, erlotinib]
Patients experiencing treatment-related adverse events ([1]; combination of erlotinib with ritonavir): 56% | Diarrhea grade 1 or 2, number of patients [1, 5]: 2 | Diarrhea ≥ grade 3, number of patients [1, 5]: 0 | Nausea grade 1 or 2, number of patients [1, 5]: 2 | Nausea ≥ grade 3, number of patients [1, 5]: 0 | Number of patients experiencing any AE [1, 5]: 5 | Skin rash grade 1 or 2, number of patients [1, 5]: 1 | Skin rash ≥ grade 3, number of patients [1, 5]: 0 | Diarrhea grade 1 or 2, number of patients [1, 6]: 2 | Diarrhea ≥ grade 3, number of patients [1, 6]: 0 | Nausea grade 1 or 2, number of patients [1, 6]: 0 | Nausea ≥ grade 3, number of patients [1, 6]: 0 | Number of patients experiencing any AE [1, 6]: 4 | Skin rash grade 1 or 2, number of patients [1, 6]: 3 | Skin rash ≥ grade 3, number of patients [1, 6]: 0 | Patients with a treatment-related adverse event ([1]; monotherapy erlotinib): 44% | elimination half-life [2]: approximately 36 h | AUC(0-t) ([3]; human, plasma, oral, 150 mg): 29300 ng·h/mL | Cmin (trough concentration) [3, 7]: 1.06 (165%) μg/mL | Cmin (trough concentration) ([3]; plasma, erlotinib 75 mg QD + ritonavir 200 mg QD, listed as erlotinib): 1.06 µg/mL | Cmax [3, 8]: 1.84 (60%) μg/mL | Cmin (trough concentration) [3, 8]: 1.00 (62%) μg/mL | Share of erlotinib metabolized by CYP3A4 (CYP3A4): approximately 70% | Increase of AUC0-∞ of erlotinib by ketoconazole [4]: approximately a twofold | Increase of Cmax of erlotinib by ketoconazole [4]: approximately a twofold

C#Cc1cccc(Nc2ncnc3cc(OCCO)c(OCCOC)cc23)c1 [OSI-413]
AUC0-24h, ratio of geometric mean (95% CI) [3]: 0.53 (0.34 – 0.83) | Cmax, ratio of geometric mean (95% CI) [3]: 0.48 (0.31 – 0.76) | Cmin, ratio of geometric mean (95% CI) [3]: 0.59 (0.37 – 0.94) | Cmax [3, 7]: 43.7 (134%) ng/mL | Cmin (trough concentration) [3, 7]: 29.4 (263%) ng/mL | AUC0-24h ([3]; plasma, erlotinib 75 mg QD + ritonavir 200 mg QD, nine patients): 0.823 (174%) μg*h/mL | Cmax [3, 8]: 90.0 (107%) ng/mL | Cmin (trough concentration) [3, 8]: 49.5 (152%) ng/mL | AUC0-24h ([3]; plasma, erlotinib monotherapy 150 mg QD, nine patients): 1.55 (120%) μg*h/mL | Change in AUC0-24h following the combination of erlotinib and ritonavir [3, 9]: statistically significant decrease | Change in Cmax following the combination of erlotinib and ritonavir [3, 9]: statistically significant decrease

CC(C)c1nc(CN(C)C(=O)N[C@H](C(=O)N[C@@H](Cc2ccccc2)C[C@H](O)[C@H](Cc2ccccc2)NC(=O)OCc2cncs2)C(C)C)cs1 [Ritonavir, ritonavir]
Cmin (trough concentration) [3, 7]: 0.243 (129%) μg/mL

OSI-420
AUC0-24h, ratio of geometric mean (95% CI) [3]: 0.31 (0.15 – 0.62) | Cmax, ratio of geometric mean (95% CI) [3]: 0.28 (0.13 – 0.57) | Cmin, ratio of geometric mean (95% CI) [3]: 0.41 (0.22 – 0.76) | AUC0-24h [3, 7]: 118 (351%) ng*h/mL | Cmax [3, 7]: 7.24 (230%) ng/mL | Cmin (trough concentration) [3, 7]: 4.34 (443%) ng/mL | AUC0-24h [3, 8]: 380 (144%) ng*h/mL | Cmax [3, 8]: 26.1 (141%) ng/mL | Cmin (trough concentration) [3, 8]: 10.5 (162%) ng/mL | Change in AUC0-24h following the combination of erlotinib and ritonavir [3, 9]: statistically significant decrease | Change in Cmax following the combination of erlotinib and ritonavir [3, 9]: statistically significant decrease | Change in Cmin following the combination of erlotinib and ritonavir [3, 9]: statistically significant decrease
